Patent publication US8921351B2, “Liquid crystalline phytosterol-glycerine complex for enhanced bioavailability and water dispersal” (Brandeis University, priority 2012, dated 2014)

Tests used:
[1] = Saturation uptake of glycerine into melted non-esterified phytosterols; format: physicochemical
Description: An experiment was conducted to determine the “saturation uptake” level during the chemical interaction between phytosterols and glycerine, The saturation uptake level can be either an adsorption phenomenon or a solubility phenomenon. First, the saturation level of glycerine uptake into non-esterified phytosterols was determined Mixed phytosterols that had been purified from soybean oil, and containing principally beta-sitosterol, campesterol and stigmasterol (CoroWise® FG-50), were heated, […] Increasing levels of glycerine (approximately 5, 10, 20 and 25 parts by weight) could be adsorbed or dissolved in 100 parts by weight of heated and melted free phytosterols. The evidence for adsorption (or solubility) was that a single melted phase of liquid was visible in heated glass test tubes containing these mixtures, whereas when larger amounts of glycerine were added, the glycerine formed a separate clear phase beneath the melted phytosterols. Upon cooling and solidification of the phytosterol samples containing between approximately 5 and 25 parts by weight of glycerine, the resulting solids were dry to the touch with no apparent free glycerine liquid. […]

[2] = cited from earlier work
[3] = Mutual solubility of phytosterols with glycerine or propylene glycol at 150° C.; format: physicochemical
Description: It was discovered that a substantial amount of glycerine can be combined with phytosterol to form a complex (up to approximately 20% glycerine based on the weight of phytosterol). This was surprising given that glycerine is a low molecular weight hydrophilic substance whereas phytosterols (e.g., beta-sitosterol, campesterol and stigmasterol) are highly hydrophobic substances. […] The question arose, why can 20% glycerine dissolve into melted phytosterols when a small amount of phytosterol will not dissolve into glycerine. […] For example, equal weight percentages of these ingredients dissolve easily in one another.

OCC(O)CO [glycerine]
saturation level of glycerine relative to phytosterols [1]: ~20 % by weight
solubility limit (saturation level) of glycerine in melted phytosterols ([1]; phytosterols melted at approximately 135° C.): about 25 g per 100 g phytosterols

CCCCCO [n-amyl alcohol]
solubility limit in water [2]: 2.7 g per 100 g water

CC(O)CO (stereo not shown) [propylene glycol]
miscibility of propylene glycol and phytosterols [3]: substantially miscible
